The record followed here is PubChem BioAssay (NCI).

Some test systems named below: 786-0 renal; DU-145 prostate; HCT-15 colon; HL-60(TB) leukemia; KM12 colon; M14 melanoma; OVCAR-8 ovarian; SF-268 CNS; SK-MEL-28 melanoma; SK-OV-3 ovarian.
Common to all, as to assay: growth of human tumour cells (NCI), 48 h

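In this assay, cells in 96-well plates receive the compound at five concentrations for 48 hours. Endpoints are linearly interpolated between the surrounding concentrations. TGI marks complete inhibition of growth.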 Some results are limits rather than exact numbers.

Turning to `Cc1c2c3cc(O)ccc3nc-2n(C)c2ccccc12`, the TGI with 786-0 renal stood at 10.5 µM; in the test with DU-145 prostate it was 14.3 µM; with HCT-15 colon, 10.5 µM; in the test with HL-60(TB) leukemia, 19.8 µM; in the test on KM12 colon, 5.28 µM; in the test on M14 melanoma, 4.6 µM. Also, the TGI was 10.6 µM in the test with OVCAR-8 ovarian, 8.02 µM with SF-268 CNS, 5.97 µM with SK-MEL-28 melanoma and 6.22 µM in the test with SK-OV-3 ovarian.
Regarding `Cc1ccc(C(=O)N(C(C)C)C(C)C)cc1N=NN(C)C`, the TGI with 786-0 renal, in the test with DU-145 prostate, with HCT-15 colon, in the test with HL-60(TB) leukemia, in the test with KM12 colon and with M14 melanoma was greater than 100 µM throughout. Also, the TGI in the test with OVCAR-8 ovarian is greater than 100 µM; in the test on SF-268 CNS, 98 µM; in the test with SK-MEL-28 melanoma it was greater than 100 µM; in the test on SK-OV-3 ovarian, greater than 100 µM.
Turning to `CCOC(=O)c1ccc(C(=O)C(C(C)=O)C(=O)OC(C)(C)C)n1C` (stereo not given), the TGI in the test on 786-0 renal, in the test with DU-145 prostate, with HCT-15 colon, with HL-60(TB) leukemia, in the test on KM12 colon and in the test with M14 melanoma was greater than 100 µM each time. Moreover, the TGI in the test on OVCAR-8 ovarian, in the test with SF-268 CNS, in the test with SK-MEL-28 melanoma and in the test on SK-OV-3 ovarian was greater than 100 µM throughout.
Regarding `CCCn1c(C23CC4CC(CC(C4)C2)C3)nc2ccc(Cl)cc2c1=O`, the TGI in the test on 786-0 renal was greater than 100 µM; in the test with DU-145 prostate, 95.9 µM; in the test with HCT-15 colon, greater than 100 µM; in the test with HL-60(TB) leukemia it was greater than 100 µM; in the test on KM12 colon, greater than 100 µM; in the test with M14 melanoma, greater than 100 µM. For the same compound, the TGI in the test with OVCAR-8 ovarian, with SF-268 CNS, in the test with SK-MEL-28 melanoma and with SK-OV-3 ovarian was greater than 100 µM each time.
In the case of `C#CCNC(Cc1cnc[nH]1)C(=O)O` (stereo not given), the TGI with 786-0 renal, with DU-145 prostate, in the test on HCT-15 colon, in the test with HL-60(TB) leukemia, in the test with KM12 colon and in the test on M14 melanoma was greater than 100 µM throughout. For the same compound, the TGI in the test on OVCAR-8 ovarian, with SF-268 CNS, in the test with SK-MEL-28 melanoma and in the test on SK-OV-3 ovarian was greater than 100 µM throughout.
With `C=CCC(CNC(=O)OCc1ccccc1)O[Si](C)(C)C(C)(C)C` (stereo not given), the TGI in the test on 786-0 renal is 98.7 µM; in the test with DU-145 prostate it was greater than 100 µM; in the test on HCT-15 colon, greater than 100 µM; in the test with HL-60(TB) leukemia it was 51.9 µM; in the test on KM12 colon, greater than 100 µM; with M14 melanoma, greater than 100 µM. The TGI with OVCAR-8 ovarian, with SF-268 CNS, with SK-MEL-28 melanoma and in the test on SK-OV-3 ovarian was greater than 100 µM throughout.
As to `CC(NC(=O)/C(=C/c1ccccc1O)NC(=O)c1ccccc1)C(=O)O` (stereo not given), the TGI in the test on 786-0 renal was 68.1 µM; with DU-145 prostate, greater than 100 µM; in the test with HCT-15 colon it was 80.4 µM; in the test with HL-60(TB) leukemia, greater than 100 µM; in the test on KM12 colon it was greater than 100 µM; in the test with M14 melanoma it was greater than 100 µM. The TGI in the test on OVCAR-8 ovarian was 29.1 µM; in the test on SF-268 CNS, 32.9 µM; in the test on SK-MEL-28 melanoma it was greater than 100 µM; in the test with SK-OV-3 ovarian it was 50.2 µM.
For the compound `Cc1csc2c1C(=O)c1ccsc1C2=O`, the TGI was 16 µM in the test with 786-0 renal; 3.29 µM with DU-145 prostate; 3.51 µM with HCT-15 colon; greater than 30.1 µM in the test with HL-60(TB) leukemia; 11 µM with KM12 colon; 2.02 µM in the test with M14 melanoma. Besides, the TGI in the test on OVCAR-8 ovarian is 11.3 µM; in the test on SF-268 CNS it was 12.1 µM; in the test on SK-MEL-28 melanoma it was 2.95 µM; with SK-OV-3 ovarian, 40.5 µM.
In the case of `O=C(C1=C(C(=O)c2ccccc2)SC2(S1)C(C(=O)c1ccccc1)=C(C(=O)c1ccccc1)Sc1c2ssc1=O)c1ccccc1`, the TGI in the test on 786-0 renal was greater than 100 µM; in the test on DU-145 prostate it was greater than 100 µM; with HCT-15 colon, greater than 100 µM; in the test on HL-60(TB) leukemia it was 69.8 µM; in the test with KM12 colon, 92.7 µM; in the test on M14 melanoma, greater than 100 µM. Besides, the TGI in the test on OVCAR-8 ovarian, in the test with SF-268 CNS, in the test on SK-MEL-28 melanoma and in the test on SK-OV-3 ovarian was greater than 100 µM each time.
For the compound `CCCCCc1cc2c(cc1O)CC[C@@H]1[C@@H]2CC[C@]2(C)[C@@H](O)CC[C@@H]12`, the TGI was 28.9 µM with 786-0 renal; 31.4 µM in the test with DU-145 prostate; 31.3 µM with HCT-15 colon; 41.4 µM in the test on HL-60(TB) leukemia; 26.1 µM in the test with KM12 colon; 29.4 µM with M14 melanoma. Moreover, the TGI in the test with OVCAR-8 ovarian stood at 43 µM; in the test with SF-268 CNS it was 38.9 µM; with SK-MEL-28 melanoma it was 30.7 µM; in the test on SK-OV-3 ovarian it was 45 µM.
